Measurements taken from patent US20170202822A1, “METHODS AND COMPOSITIONS FOR ENHANCING CANCER THERAPY” (THE SCRIPPS RESEARCH INSTITUTE, priority 2014, published 2017).

Key:
T47D cells = experiment: Proliferation of T47D cells (shCtrl vs shNAMPT) by crystal violet staining; format: cell-based, human; details: 14 days
Protocol: (§1) NAMPT knockdown (shNAMPT) reduced NAMPT (A) mRNA and (B) protein expression in MCF7 and T47D cells compared to controls transduced with scrambled shRNA (shCtrl). (A) NAMPT mRNA levels were analyzed by real time PCR and are expressed relative to beta-D-glucuronidase (GUSB) (***P<0.001) (n=3). (B) NAMPT protein expression was analyzed by Western blot analysis. Quantification of NAMPT protein was related to β-tubulin expression. […] Cellular NAD was analyzed in whole cell extracts of 1×10^6 cells. Metabolite concentrations were determined using a NAD+/NADH fluorescence detection kit (Cell Technology, Inc) and normalized to protein content. […] Proliferation was measured based on crystal violet staining and is expressed as % of proliferation of untreated cells. […]
(§2) (A) Effect of nicotinamide treatment (10 mM NAM) on proliferation of control (shCtrl) vs NAMPT-knockdown (shNAMPT) MCF7 and T47D cells exposed to 1 μM or 0.1 μM 4-hydroxytamoxifen (tamoxifen active metabolite) respectively for 14 days. Proliferation was measured based on crystal violet staining and is expressed as % of proliferation of untreated cells (no 4-hydroxytamoxifen, no NAM). […] NAD^+ and NADH were analyzed independently in whole cell extracts of 1×10^6 cells. Metabolite concentrations were determined using a NAD^+/NADH fluorescence detection kit (Cell Technology, Inc). […] Nuclei were detected by DAPI staining. […]

MCF7 cells [1] = experiment: Growth of MCF7 cells in estrogen-free, phenol red-free medium, crystal violet staining; format: cell-based, human; details: for proliferation with 4-hydroxytamoxifen: 10 nM E2 + 1 μM 4-hydroxytamoxifen; for sensitization to tamoxifen's antiproliferative effects: 1 μM 4-hydroxytamoxifen
Protocol: (A) Growth of control (shCtrl) vs NAMPT knockdown (shNAMPT) MCF7 cells cultured for 7 days in EMEM medium supplemented with 10% FBS, or in phenol red-free EMEM supplemented with 10% charcoal-stripped estrogen-free FBS. Growth was measured by crystal violet staining after 7 days in culture. Groups were compared by unpaired two-tailed Student's t-test in n=3 (***P<0.001). (B) Growth of control (shCtrl) vs NAMPT knockdown (shNAMPT) MCF7 cells cultured in estrogen-free, phenol red-freeEMEM medium supplemented with 10% charcoal-stripped FBS. […] Growth was measured by crystal violet staining after 7 days in culture. Groups were compared by unpaired two-tailed Student's t-test in n=3 (*P<0.05,[…],***P<0.001). (C) Changes in NAD^+ levels impact the subcellular localization of ERα. […] Estrogen starvation and treatment were performed in phenol red-free EMEM supplemented with 10% charcoal-stripped FBS. ERα was detected by immunofluorescence using Pierce anti-ERα antibody (MA1-39539). Representative images are shown for all conditions.
To further analyze the regulatory role of NAMPT and the NAD^+ salvage pathway in estrogen-dependent growth and tamoxifen treatment, we first analyzed the capacity of MCF7 variant cells to grow in estrogen-free media. […] Importantly, low NAMPT expressing MCF7 cells (shNAMPT) had the capacity to proliferate even in the absence of estrogens (FIG. 6A). […] Furthermore, NAM treatment sensitized shCT and re-sensitized shNAMPT cells to tamoxifen's antiproliferative effects (FIG. 6B). In FIG. 4C, we analyzed the ERα localization in MCF7 cells when the cells were cultured in EMEM medium supplemented with 10% FBS, serum that contain hormones and growth factors that modulate ERα localization independently of the presence of estrogens (Muriel Le Romancer et al., Endocrine Reviews, October 2011, 32(5):597-622). In order to deeply analyze the role of NAMPT and NAM treatment on modulating ligand-dependent ERα nuclear localization, we starved the cells from any growth factor and hormones including estrogens for 72 hours by growing them in phenol red-free EMEM/10% charcoal-stripped FBS. Then, breast cancer cells were cultured for 24 hours with or without 10 nM E2, or with 10 nM E2 plus 10 mM NAM. […] In the absence of estrogens, ERα was distributed in the cytoplasm of control cells while in shNAMPT expressing cells ERα was concentrated in the nuclei.

MCF7 cells [2] = experiment: Proliferation of MCF7 cells (shCtrl vs shNAMPT) by crystal violet staining; format: cell-based, human; details: for restoration of tamoxifen sensitivity: ER+/NAMPT-low MCF7 cells, 1, 5 or 10 mM NAM or 1 or 5 mM NR
Protocol: NAMPT knockdown (shNAMPT) reduced NAMPT (A) mRNA and (B) protein expression in MCF7 and T47D cells compared to controls transduced with scrambled shRNA (shCtrl). (A) NAMPT mRNA levels were analyzed by real time PCR and are expressed relative to beta-D-glucuronidase (GUSB) (***P<0.001) (n=3). (B) NAMPT protein expression was analyzed by Western blot analysis. Quantification of NAMPT protein was related to β-tubulin expression. […] Cellular NAD was analyzed in whole cell extracts of 1×10^6 cells. Metabolite concentrations were determined using a NAD+/NADH fluorescence detection kit (Cell Technology, Inc) and normalized to protein content. (D) Proliferation of control (shCtrl) vs NAMPT-knockdown (shNAMPT) MCF7 and T47D cells, untreated or treated with 0.001, 0.05, 0.1, 1, or 5 μM 4-hydroxytamoxifen (tamoxifen active metabolite) for 14 days. Proliferation was measured based on crystal violet staining and is expressed as % of proliferation of untreated cells. Groups were compared by unpaired two-tailed Student's t-test in n=4 (***P<0.001, **P<0.01 *P<0.05).
(A) Effect of nicotinamide treatment (10 mM NAM) on proliferation of control (shCtrl) vs NAMPT-knockdown (shNAMPT) MCF7 and T47D cells exposed to 1 μM or 0.1 μM 4-hydroxytamoxifen (tamoxifen active metabolite) respectively for 14 days. Proliferation was measured based on crystal violet staining and is expressed as % of proliferation of untreated cells (no 4-hydroxytamoxifen, no NAM). Groups were compared by unpaired two-tailed Student's t-test in n=4 (***P<0.001, **P<0.01 *P<0.05). (B) NAMPT KD cells present reduced absolute levels of NAD′ and nicotinamide treatment induces NAD^+ and NADH levels in both control (CT) or NAMPT KD (shNAMPT) breast cancer cells. NAD^+ and NADH were analyzed independently in whole cell extracts of 1×10^6 cells. Metabolite concentrations were determined using a NAD^+/NADH fluorescence detection kit (Cell Technology, Inc). (C) Distribution of ERα in MCF7 shCT or shNAMPT cells, measured after 7 days of cell treatment with 10 mM nicotinamide in EMEM medium, supplemented with 10% FBS. ERα localization was detected by immunofluorescence using anti-ERα clone SP1 (Thermo Fisher). Nuclei were detected by DAPI staining. Representative images are shown.
Nicotinamide riboside (NR) was more efficient than nicotinamide in blocking low-NAMPT-induced tamoxifen resistance. Proliferation of control (shCT) vs NAMPT-knockdown (shNAMPT) MCF7 cells treated with 1 or 5 μM 4-hydroxytamoxifen (tamoxifen active metabolite) for 7 days with or without (A) 1, 5 or 10 mM nicotinamide (NAM) or (B) 1 or 5 mM nicotinamide riboside (NR). Proliferation was measured based on crystal violet staining and is expressed as % of proliferation of untreated cells (no 4-hydroxytamoxifen). Groups were compared by unpaired two-tailed Student's t-test in n=4 (***P<0.001, **P<0.01 *P<0.05).

MDA-MB-231 cells = experiment: Proliferation of triple negative MDA-MB-231 cells by crystal violet staining; format: cell-based, human; details: 10 mM NAM, 0.5, 1 or 5 μM 4-hydroxytamoxifen, 14 days
Protocol: Proliferation of triple negative breast MDA-MB-231 cells, untreated or treated with 0.5, 1 or 5 μM 4-hydroxytamoxifen (tamoxifen active metabolite) for 14 days, with or without treatment with 10 mM nicotinamide (NAM). Proliferation was measured based on crystal violet staining and is expressed as % of proliferation of untreated cells (no 4-hydroxytamoxifen, no NAM). Groups were compared by unpaired two-tailed Student's t-test in n=3 (**P<0.01).

cellular NAD^+ = experiment: Cellular NAD+ in whole cell extracts, NAD+/NADH fluorescence detection kit; format: cell-based, human; details: MCF7 cells expressing basal or low NAMPT levels
Protocol: as §1, §2

[3] = MCF7 shNAMPT, 10 mM NAM, 7 days
[4] = 1 or 5 μM 4-hydroxytamoxifen, 7 days

## 4-hydroxytamoxifen
T47D cells; T47D shNAMPT vs shCtrl, 0.001-5 μM
  anti-proliferative efficacy of 4-hydroxytamoxifen on reduction of NAMPT expression: dramatically reduced the anti-proliferative efficacy
MCF7 cells [1]; MCF7 shCT, 7 days
  proliferation with 4-hydroxytamoxifen: able to reduce proliferation
MCF7 cells [1]; MCF7 shNAMPT, 7 days
  proliferation with 4-hydroxytamoxifen: not in shNAMPT
MCF7 cells [2]; MCF7 shNAMPT vs shCtrl, 0.001-5 μM, 14 days
  anti-proliferative efficacy of 4-hydroxytamoxifen on reduction of NAMPT expression: dramatically reduced the anti-proliferative efficacy

## C[C@]12CC[C@@H]3c4ccc(O)cc4CC[C@H]3[C@@H]1CC[C@@H]2O [17-β-estradiol]
MCF7 cells [1]; MCF7 shCT, 10 nM E2, 7 days, estrogen-free medium
  proliferation with 17-β-estradiol: induced proliferation

## NC(=O)c1cccnc1 [NAM, nicotinamide]
T47D cells; T47D shCtrl and shNAMPT, 10 mM NAM, 0.1 μM 4-hydroxytamoxifen
  effect of NAM on anti-proliferative efficacy of 4-hydroxytamoxifen: enhanced the anti-proliferative efficacy of 4-hydroxytamoxifen
ERα; MCF7 control and shNAMPT, estrogen starved 72 h, 10 nM E2 plus 10 mM NAM, 24 h
  ERα nuclear localization with NAM: inhibited ERα nuclear localization
ERα; MCF7 shCT or shNAMPT, 10 mM nicotinamide, 7 days, EMEM with 10% FBS
  ERα expression and nuclear localization: do not affect estrogen receptor alpha (ERα) expression and nuclear localization
MCF7 cells [1]; MCF7 shCT, 10 mM NAM, 7 days
  sensitization to tamoxifen's antiproliferative effects: sensitized
  estrogen-induced proliferation: dramatically inhibited
MCF7 cells [1]; [3]
  sensitization to tamoxifen's antiproliferative effects: re-sensitized
  estrogen-independent growth: dramatically inhibited
MCF7 cells [2]; [4]
  restoration of tamoxifen sensitivity: restore tamoxifen sensitivity
MCF7 cells [2]; MCF7 shCtrl and shNAMPT, 10 mM NAM, 1 μM 4-hydroxytamoxifen, 14 days
  effect of NAM on anti-proliferative efficacy of 4-hydroxytamoxifen: enhanced the anti-proliferative efficacy of 4-hydroxytamoxifen
MDA-MB-231 cells
  sensitization to tamoxifen-induced antiproliferative effects: sensitized MDA-MB-231 to tamoxifen-induced antiproliferative effects
Cellular NAD^+
  NAD+ levels after NAM treatment: induced significantly NAD^+ levels

## NC(=O)c1ccc[n+]([C@@H]2O[C@H](CO)[C@@H](O)[C@H]2O)c1 [nicotinamide riboside]
MCF7 cells [2]; ER+/NAMPT low (shNAMPT) MCF7 cells, 1 or 5 mM NR, 1 or 5 μM 4-hydroxytamoxifen, 7 days
  activity in restoring Tamoxifen sensitivity compared with NAM: more potent activity than NAM
MCF7 cells [2]; [4]
  restoration of tamoxifen sensitivity: restore tamoxifen sensitivity
